Values of other authors in US8455021B2, “Composition for prophylaxis or treatment of urinary system infection and method thereof” (priority 2006, dated 2013).

Assays:
[1] = target: MMP-9 (Homo sapiens, UniProt P14780); details: Yu Cai et al., J pharm Pharmacol. 2003
[2] = tested on: MMP-2; details: Yu Cai et al., J pharm Pharmacol. 2003

Chain of MMP-9 (P14780 94-707, species assumed): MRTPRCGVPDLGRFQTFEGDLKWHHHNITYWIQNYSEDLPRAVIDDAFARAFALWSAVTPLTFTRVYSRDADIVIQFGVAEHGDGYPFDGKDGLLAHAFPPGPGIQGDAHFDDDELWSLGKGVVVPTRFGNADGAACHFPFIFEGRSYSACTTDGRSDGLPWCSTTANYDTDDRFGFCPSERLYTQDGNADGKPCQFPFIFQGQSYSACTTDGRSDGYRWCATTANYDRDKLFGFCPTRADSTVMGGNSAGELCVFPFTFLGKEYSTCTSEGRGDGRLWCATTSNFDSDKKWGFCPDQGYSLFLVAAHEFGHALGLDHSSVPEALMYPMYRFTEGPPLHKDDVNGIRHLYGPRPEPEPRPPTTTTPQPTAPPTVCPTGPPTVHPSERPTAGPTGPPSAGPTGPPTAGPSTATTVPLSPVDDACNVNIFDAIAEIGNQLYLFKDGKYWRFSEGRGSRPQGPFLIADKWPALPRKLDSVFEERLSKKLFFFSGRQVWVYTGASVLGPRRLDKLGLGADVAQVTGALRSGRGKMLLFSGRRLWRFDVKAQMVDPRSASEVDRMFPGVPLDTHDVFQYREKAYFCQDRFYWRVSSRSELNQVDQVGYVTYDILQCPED

activity of matrix metalloproteinase MMP-9 [1]: inhibits the activity
activity of matrix metalloproteinase MMP-2 [2]: inhibits the activity
Compound: C[C@@H]1O[C@@H](O[C@H]2C(=O)c3c(O)cc(O)cc3O[C@@H]2c2ccc(O)c(O)c2)[C@H](O)[C@H](O)[C@H]1O [astilbin]
